This passage reports IC50 results from ChEMBL document CHEMBL1132917, “Discovery of a potent, non-triketone type inhibitor of 4-hydroxyphenylpyruvate dioxygenase” (Bioorg Med Chem Lett, 2000).

The assay deals with 4-hydroxyphenylpyruvate dioxygenase (Sus scrofa, UniProt Q02110). The assay is described as follows: In vitro inhibitory activity against HPPD(4-hydroxyphenylpyruvate Dioxygenase) from pig liver using enol borate assay method.
Sequence of 4-hydroxyphenylpyruvate dioxygenase (Q02110 whole entry): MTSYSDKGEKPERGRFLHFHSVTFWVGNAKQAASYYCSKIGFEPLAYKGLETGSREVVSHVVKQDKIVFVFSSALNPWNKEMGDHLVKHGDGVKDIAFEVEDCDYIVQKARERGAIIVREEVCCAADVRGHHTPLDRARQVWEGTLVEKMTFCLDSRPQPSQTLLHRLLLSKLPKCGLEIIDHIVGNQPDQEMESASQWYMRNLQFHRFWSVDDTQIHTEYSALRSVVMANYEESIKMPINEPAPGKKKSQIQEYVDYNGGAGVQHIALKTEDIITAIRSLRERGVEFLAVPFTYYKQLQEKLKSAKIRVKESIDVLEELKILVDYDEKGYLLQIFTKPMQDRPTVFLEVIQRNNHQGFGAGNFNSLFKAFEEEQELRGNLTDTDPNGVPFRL
Turning to `O=C1C=C(OC(=O)C2CC2)CCC1`, it took 0.03 µM to reach half-maximal inhibition (IC50).
As to `CC(=O)OC1=CC(=O)CCC1`, the midpoint of inhibition, the IC50, lay at 3.62 µM.
`CC(C)C(=O)OC1=CC(=O)CCC1`: inhibition was half-maximal at 4.16 µM (IC50).
